Patent US20230141603A1, “BENZODIAZEPINE DERIVATIVES AS GABA A GAMMA1 PAM” (Hoffmann-La Roche Inc., priority 2021, published 2023)

Legend:
h-GABAA α2β2γ1 = target: T1, h-GABAA α2β2γ1 (Homo sapiens, UniProt P47869+Q8N1C3); test: Two-electrode voltage clamp electrophysiology in Xenopus oocytes, modulation of GABA EC20 current; format: cell-based; design: host or cells: Xenopus laevis oocytes, RNA micro-injection; details: Table 2; for Efficacy (GABA)%: % modulation of GABA EC20 = 100*(Fold increase−1), compound at approx. 30-fold Ki; for Fold increase h-GABA-A α2β2γ1 oocyte @ 30-fold Ki: compound at approx. 30-fold its Ki α2β2γ1, GABA EC20, Xenopus oocytes
T1 sequence (P47869 29-451): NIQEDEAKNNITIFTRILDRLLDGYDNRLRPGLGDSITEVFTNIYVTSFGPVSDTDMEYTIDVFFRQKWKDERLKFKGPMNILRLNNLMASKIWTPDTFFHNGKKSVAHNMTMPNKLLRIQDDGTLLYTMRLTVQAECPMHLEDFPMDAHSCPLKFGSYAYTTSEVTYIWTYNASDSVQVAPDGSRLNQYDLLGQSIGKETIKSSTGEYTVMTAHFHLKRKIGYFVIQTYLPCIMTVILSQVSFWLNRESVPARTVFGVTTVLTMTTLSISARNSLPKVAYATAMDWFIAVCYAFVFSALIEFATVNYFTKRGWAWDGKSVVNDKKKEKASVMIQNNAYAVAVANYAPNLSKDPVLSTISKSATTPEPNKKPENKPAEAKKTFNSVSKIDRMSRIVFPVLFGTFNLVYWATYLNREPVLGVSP
T1 sequence (P47870 25-512 partner limits assumed): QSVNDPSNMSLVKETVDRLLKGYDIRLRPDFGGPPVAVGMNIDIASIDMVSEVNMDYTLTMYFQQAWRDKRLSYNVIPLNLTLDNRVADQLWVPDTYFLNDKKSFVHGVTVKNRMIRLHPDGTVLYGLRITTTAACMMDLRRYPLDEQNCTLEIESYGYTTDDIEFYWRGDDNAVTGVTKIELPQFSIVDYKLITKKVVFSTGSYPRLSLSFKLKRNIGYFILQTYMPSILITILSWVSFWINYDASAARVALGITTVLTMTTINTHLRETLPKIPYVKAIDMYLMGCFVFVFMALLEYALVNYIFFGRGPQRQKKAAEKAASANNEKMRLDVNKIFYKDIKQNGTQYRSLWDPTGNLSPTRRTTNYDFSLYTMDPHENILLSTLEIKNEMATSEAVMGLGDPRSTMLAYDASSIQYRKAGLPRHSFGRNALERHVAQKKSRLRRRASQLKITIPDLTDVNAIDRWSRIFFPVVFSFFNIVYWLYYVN
T1 sequence (Q8N1C3 36-465): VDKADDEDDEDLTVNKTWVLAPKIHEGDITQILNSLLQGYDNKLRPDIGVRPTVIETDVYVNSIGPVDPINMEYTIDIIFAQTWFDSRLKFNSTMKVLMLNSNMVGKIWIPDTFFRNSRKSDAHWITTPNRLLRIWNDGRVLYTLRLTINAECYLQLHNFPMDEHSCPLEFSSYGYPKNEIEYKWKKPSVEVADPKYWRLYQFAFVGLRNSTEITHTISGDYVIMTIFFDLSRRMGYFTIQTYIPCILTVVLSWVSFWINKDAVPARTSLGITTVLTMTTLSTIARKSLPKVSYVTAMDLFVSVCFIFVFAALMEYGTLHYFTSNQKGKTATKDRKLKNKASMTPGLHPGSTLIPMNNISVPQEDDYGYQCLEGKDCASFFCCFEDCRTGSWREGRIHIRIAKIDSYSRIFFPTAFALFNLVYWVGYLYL
Summary of the method: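 Oocytes injected with receptor subunit mRNA were recorded 3–5 days later by two-electrode voltage clamp at −80 mV, room temperature, pH 7.4. Compound was applied during a second GABA EC20 pulse, with at least 3 oocytes per concentration. Efficacy is the ratio-trace extremum, expressed as % modulation of GABA EC20.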

h-GABAA α1β3γ2 = target: T2, h-GABAA α1β3γ2 (Homo sapiens, UniProt P14867+P18507); test: Radioligand binding assay, [3H]Flumazenil competition, HEK293F membranes; details: for γ2/γ1 Selectivity Ratio / LogSel: Table 1; for γ2/γ1 Selectivity Ratio: Ki α1β3γ2 (nM)/Ki α2β2γ1 (nM); for LogSel: Log[Ki α1β3γ2 (nM)/Ki α2β2γ1 (nM)]
T2 construct: expressed in transfected cells; host or cells: HEK293F cells, membranes
Summary of the method: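 [3H]Flumazenil competition binding on membranes from HEK293F cells transiently expressing human α1β3γ2 receptors. Incubation to equilibrium for 1 h at 4 °C, then filtration and scintillation counting. Ki is the mean of two determinations.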

Q: What does the source list for `Fc1ccccc1C1=NCc2nnc(-c3cccnn3)n2-c2ccc(C(F)(F)F)c(Cl)c21` [Example 27, 7-chloro-6-(2-fluorophenyl)-1-pyridazin-3-yl-8-(trifluoromethyl)-4H-[1,2,4]triazolo[4,3-a][1,4]benzodiazepine]?
A: Efficacy (GABA)% (h-GABAA α2β2γ1): 71%; Fold increase h-GABA-A α2β2γ1 oocyte @ 30-fold Ki (h-GABAA α2β2γ1): 1.71; Ki (h-GABAA α1β3γ2): 4800 nM; γ2/γ1 Selectivity Ratio (h-GABAA α1β3γ2): 56.7; LogSel (h-GABAA α1β3γ2): 1.75

Q: `Cn1cc(-c2nnc3n2-c2ccc(Cl)c(Cl)c2C(c2c(F)cccc2F)=NC3)cn1` [Example 28, 7,8-dichloro-6-(2,6-difluorophenyl)-1-(1-methylpyrazol-4-yl)-4H-[1,2,4]triazolo[4,3-a][1,4]benzodiazepine] was tested. Which “Efficacy (GABA)%” value (h-GABAA α2β2γ1) did it give?
A: Its value is 59%.

Q: What about the “Fold increase h-GABA-A α2β2γ1 oocyte @ 30-fold Ki” value (h-GABAA α2β2γ1) of the same compound?
A: Its value is 1.59.

Q: What about the Ki (h-GABAA α1β3γ2) of the same compound?
A: The Ki was 293 nM.

Q: And the “γ2/γ1 Selectivity Ratio” value (h-GABAA α1β3γ2)?
A: Its value is 31.1.

Q: And the LogSel (h-GABAA α1β3γ2)?
A: Its LogSel is 1.49.

Q: For `Fc1cccnc1C1=NCc2nncn2-c2ccc(Br)c(Cl)c21` [Example 29, 8-bromo-7-chloro-6-(3-fluoro-2-pyridyl)-4H-[1,2,4]triazolo[4,3-a][1,4]benzodiazepine], which “Efficacy (GABA)%” value (h-GABAA α2β2γ1) is on record?
A: The value was 105%.

Q: And the “Fold increase h-GABA-A α2β2γ1 oocyte @ 30-fold Ki” value (h-GABAA α2β2γ1)?
A: Its value is 2.05.

Q: And the Ki (h-GABAA α1β3γ2)?
A: Its Ki is 789 nM.

Q: What about the “γ2/γ1 Selectivity Ratio” value (h-GABAA α1β3γ2) of the same compound?
A: The value was 16.6.

Q: What about the LogSel (h-GABAA α1β3γ2) of the same compound?
A: The LogSel was 1.22.

Q: Which results are given for `OCc1nnc2n1-c1ccc(Br)c(Cl)c1C(c1c(F)cccc1F)=NC2` [Example 33, [8-bromo-7-chloro-6-(2,6-difluorophenyl)-4H-[1,2,4]triazolo[4,3-a][1,4]benzodiazepin-1-yl]methanol]?
A: Efficacy (GABA)% (h-GABAA α2β2γ1): 80%; Fold increase h-GABA-A α2β2γ1 oocyte @ 30-fold Ki (h-GABAA α2β2γ1): 1.80; Ki (h-GABAA α1β3γ2): 232 nM; γ2/γ1 Selectivity Ratio (h-GABAA α1β3γ2): 18.2; LogSel (h-GABAA α1β3γ2): 1.26

Q: Which “Efficacy (GABA)%” value (h-GABAA α2β2γ1) does the source give for `Fc1cccc(F)c1C1=NCc2nncn2-c2ccc(I)c(Cl)c21` [Example 34, 7-chloro-6-(2,6-difluorophenyl)-8-iodo-4H-[1,2,4]triazolo[4,3-a][1,4]benzodiazepine] here?
A: Its value is 81%.

Q: And the “Fold increase h-GABA-A α2β2γ1 oocyte @ 30-fold Ki” value (h-GABAA α2β2γ1)?
A: Its value is 1.81.

Q: And the Ki (h-GABAA α1β3γ2)?
A: The Ki was 161 nM.

Q: And the “γ2/γ1 Selectivity Ratio” value (h-GABAA α1β3γ2)?
A: Its value is 15.9.

Q: And the LogSel (h-GABAA α1β3γ2)?
A: Its LogSel is 1.20.

Q: `Cl.NCc1nnc2n1-c1ccc(Br)c(Cl)c1C(c1c(F)cccc1F)=NC2` [Example 36, [8-bromo-7-chloro-6-(2,6-difluorophenyl)-4H-[1,2,4]triazolo[4,3-a][1,4]benzodiazepin-1-yl]methanamine hydrochloride] was tested. Which “Efficacy (GABA)%” value (h-GABAA α2β2γ1) did it give?
A: The value was 33%.

Q: And the “Fold increase h-GABA-A α2β2γ1 oocyte @ 30-fold Ki” value (h-GABAA α2β2γ1)?
A: The value was 1.33.

Q: What about the Ki (h-GABAA α1β3γ2) of the same compound?
A: Its Ki is 180 nM.

Q: And the “γ2/γ1 Selectivity Ratio” value (h-GABAA α1β3γ2)?
A: Its value is 21.2.

Q: What about the LogSel (h-GABAA α1β3γ2) of the same compound?
A: Its LogSel is 1.33.

Q: How did the “Efficacy (GABA)%” value (h-GABAA α2β2γ1) turn out when `Fc1cccc(F)c1C1=NCc2nncn2-c2ccc(C(F)(F)F)c(Cl)c21` [Example 37, 7-chloro-6-(2,6-difluorophenyl)-8-(trifluoromethyl)-4H-[1,2,4]triazolo[4,3-a][1,4]benzodiazepine] was run?
A: The value was 67%.

Q: And the “Fold increase h-GABA-A α2β2γ1 oocyte @ 30-fold Ki” value (h-GABAA α2β2γ1)?
A: The value was 1.67.

Q: And the Ki (h-GABAA α1β3γ2)?
A: Its Ki is 1180 nM.

Q: What about the “γ2/γ1 Selectivity Ratio” value (h-GABAA α1β3γ2) of the same compound?
A: The value was 28.5.

Q: And the LogSel (h-GABAA α1β3γ2)?
A: The LogSel was 1.45.

Q: Which results are given for `Fc1cccc(F)c1C1=NCc2nnc(-c3cccnn3)n2-c2ccc(C(F)(F)F)c(Cl)c21` [Example 38, 7-chloro-6-(2,6-difluorophenyl)-1-pyridazin-3-yl-8-(trifluoromethyl)-4H-[1,2,4]triazolo[4,3-a][1,4]benzodiazepine]?
A: Efficacy (GABA)% (h-GABAA α2β2γ1): 114%; Fold increase h-GABA-A α2β2γ1 oocyte @ 30-fold Ki (h-GABAA α2β2γ1): 2.14; Ki (h-GABAA α1β3γ2): 1430 nM; γ2/γ1 Selectivity Ratio (h-GABAA α1β3γ2): 113.4; LogSel (h-GABAA α1β3γ2): 2.05

Q: Which results are given for `Fc1cccc(F)c1C1=NCc2nnc(-c3cccnn3)n2-c2ccc(I)c(Cl)c21` [Example 39, 7-chloro-6-(2,6-difluorophenyl)-8-iodo-1-pyridazin-3-yl-4H-[1,2,4]triazolo[4,3-a][1,4]benzodiazepine]?
A: Efficacy (GABA)% (h-GABAA α2β2γ1): 133%; Fold increase h-GABA-A α2β2γ1 oocyte @ 30-fold Ki (h-GABAA α2β2γ1): 2.33; Ki (h-GABAA α1β3γ2): 360 nM; γ2/γ1 Selectivity Ratio (h-GABAA α1β3γ2): 85.8; LogSel (h-GABAA α1β3γ2): 1.93
